The source of these data is ChEMBL document CHEMBL4715834, “Design, synthesis and bio-evaluation of novel 2-aryl-4-(3,4,5-trimethoxy-benzoyl)-5-substituted-1,2,3-triazoles as the tubulin polymerization inhibitors” (Eur J Med Chem, 2020).

The subject of series [1] is HeLa. The series is described as follows: Antiproliferative activity against human HeLa cells assessed as inhibition of cell growth measured after 72 hrs by MTT assay. It counts as functional, cell-based.
The test system of series [2] is A549. As to the kind of experiment: Antiproliferative activity against human A549 cells assessed as inhibition of cell growth measured after 72 hrs by MTT assay. The series is classed as functional, cell-based. The following applies: A549, 72 h. (In general: Formazan colour is commonly taken as a measure of viable cells.)
For series [3], the system named is SGC-7901. As to the kind of experiment: Antiproliferative activity against human SGC-7901 cells assessed as inhibition of cell growth measured after 72 hrs by MTT assay. It counts as functional, cell-based. The conditions noted are these: SGC-7901, 72 h.
For series [4], the system named is SGC-7901. As to the kind of experiment: Cell cycle arrest in human SGC-7901 cells assessed as accumulation at G2/M cell population at 0.084 uM measured after 12 hrs by propidium iodide staining based flow cytometry (reference value: 14.5%). The series is classed as functional. A general note: Flow cytometry measures light scatter and fluorescence of single cells or particles in a stream.

Series [5] can be described thus: Solubility of compound in water at pH 7.4 by UV-HPLC method. It counts as physicochemical.
In series [6] the test system is SGC-7901. As to the kind of experiment: Induction of microtubule disruption in human SGC-7901 cells assessed as change in shape of nucleus at 0.084 uM measured after 24 hrs by DAPI staining based immunofluorescence assay. The series is classed as cell-based.
The test system of series [7] is SGC-7901. As to the kind of experiment: Cell cycle arrest in human SGC-7901 cells assessed as increase in sub-G1 cell population at 0.084 uM after 72 hrs by propidium iodide staining based flow cytometry. The series is classed as functional.
Series [8] relates to SGC-7901. The series is described as follows: Cell cycle arrest in human SGC-7901 cells assessed as decrease in G1 cell population at 0.084 uM by propidium iodide staining based flow cytometry. It counts as functional. The conditions noted are these: time 12-72 hrs, TDE = time-dependent effect.
The species named for series [9] is Sus scrofa. The series is described as follows: (§1) Inhibition of porcine tubulin polymerization measured for 60 mins by fluorescence assay.
Series [10] can be described thus: as §1. Details: species or system Sus scrofa.
For series [11], the system named is SGC-7901. The series is described as follows: Induction of microtubule disruption in human SGC-7901 cells assessed as appearance of disorganised microtubule at 0.084 uM measured after 24 hrs by DAPI staining based immunofluorescence assay. It counts as cell-based.
The subject of series [12] is SGC-7901. The series is described as follows: Cell cycle arrest in human SGC-7901 cells assessed as increase in G2/M cell population at 0.084 uM by propidium iodide staining based flow cytometry. The series is classed as functional. The following applies: time 12-72 hrs, TDE = time-dependent effect.
The test system of series [13] is SGC-7901. The series is described as follows: Induction of microtubule disruption in human SGC-7901 cells assessed as shrinkage of microtubule at 0.084 uM measured after 24 hrs by DAPI staining based immunofluorescence assay. It counts as cell-based.
Series [14] deals with SGC-7901. As to the kind of experiment: Cell cycle arrest in human SGC-7901 cells assessed as decrease in G1 cell population at 0.023 uM by propidium iodide staining based flow cytometry. It counts as functional. The conditions noted are these: time 12-72 hrs, TDE = time-dependent effect.
The test system of series [15] is SGC-7901. The series is described as follows: Cell cycle arrest in human SGC-7901 cells assessed as increase in G2/M cell population at 0.023 uM by propidium iodide staining based flow cytometry. The series is classed as functional. The conditions noted are these: time 12-72 hrs, TDE = time-dependent effect.
The test system of series [16] is SGC-7901. As to the kind of experiment: Cell cycle arrest in human SGC-7901 cells assessed as increase in sub-G1 cell population at 0.023 uM after 72 hrs by propidium iodide staining based flow cytometry. It counts as functional.

In brackets after ≈: the same amount, converted by molar mass. Activity calls are given as the source filed them. The calls are words filed in the database; no cut-off is given here.

As usually defined, the IC50 is the midpoint of a concentration-inhibition curve. In general, solubility refers to how much of the substance goes into solution per volume.

For `COc1cc(C(=O)c2nn(-c3ccccc3)nc2N2CCN(C(C)C)CC2)cc(OC)c1OC`, the half-maximal inhibitory concentration (IC50) in series [1] was determined as 6.42 µM; in series [2], 7.3 µM; in [3], 2.68 µM.
As to `COc1cc(C(=O)c2nn(-c3ccccc3)nc2N2CCN(C(C)=O)CC2)cc(OC)c1OC`, the Activity is 53.9% in [4], “Tde” in [8] and “Tde” in [12]. For the same compound, the solubility in series [5] stood at 2.7 µg/mL (≈ 5.8 µM). In addition, the IC50 in [1] was 0.221 µM; in series [10], 28.3 µM; in series [2], 0.133 µM; in series [3], 0.084 µM. Moreover, the outcome in [6], in series [7], in series [11] and in [13] was Active. For the same compound, in [9], the inhibition entry was “Dose-dependent effect”.
Consider `COc1cc(C(=O)c2nn(-c3cccc(C)c3)nc2N2CCN(C(C)=O)CC2)cc(OC)c1OC`, for which the half-inhibitory concentration (IC50) in [1], in series [2] and in [3] was over 30 µM each time.
Regarding `COc1cc(C(=O)c2nn(-c3ccccc3)nc2N2CCCCC2)cc(OC)c1OC`, the figures for the IC50 in [1], in series [2] and in series [3] were 3.62 µM, 6.45 µM and 3.72 µM, respectively.
Taken in the same sequence, the figures for `COc1ccc(-n2nc(C(=O)c3cc(OC)c(OC)c(OC)c3)c(N3CCN(C(C)=O)CC3)n2)cc1[N+](=O)[O-]` were over 30 µM, over 30 µM and over 30 µM.
In series [5], `COc1cc(C(=O)c2nn(-c3ccccc3)nc2N2CCNCC2)cc(OC)c1OC` yielded a solubility of 2.2 µg/mL (≈ 5.2 µM). Further, the concentration for half-maximal inhibition (IC50) is 0.342 µM in series [1], 4.31 µM in series [2] and 1.24 µM in [3].
As to `COc1cc(C(=O)c2nn(-c3ccccc3)nc2N2CCN(C)CC2)cc(OC)c1OC`, the concentration for half-maximal inhibition (IC50) came out at 0.135 µM in series [1], 0.622 µM in series [2] and 6.58 µM in [3].
In [5], `COc1cc(C(=O)c2cnn(-c3ccccc3)n2)cc(OC)c1OC` showed a solubility of under 0.5 µg/mL. In addition, the IC50 in series [1] worked out at 11.4 µM; in [2] it was 7.1 µM; in series [3] it was 0.87 µM.
Take `COc1cc(C(=O)c2nn(-c3ccc(C)c(C)c3)nc2N2CCN(C(C)=O)CC2)cc(OC)c1OC`: the concentration for half-maximal inhibition (IC50) in series [1] was determined as 3.92 µM; in series [2], 2.61 µM; in [3], 4.83 µM.
The corresponding values for `COc1cc(C(=O)c2nn(-c3ccc(C)cc3)nc2N2CCN(C(C)=O)CC2)cc(OC)c1OC` are 0.298 µM, 0.764 µM and 0.426 µM.
On to `COc1cc(C(=O)c2csc(-c3ccccc3)n2)cc(OC)c1OC`, for which the solubility in series [5] is under 0.5 µg/mL. The results for the half-maximal inhibitory concentration (IC50) in [1] and in series [2] were 0.037 µM and 0.034 µM, respectively. Moreover, the Activity entry in series [14] and in series [15] was “Tde” each time. For the same compound, the result in series [16] was Active.
`COc1ccc(/C=C\c2cc(OC)c(OC)c(OC)c2)cc1O` [COMBRETASTATIN A4] yielded a solubility in series [5] of 0.1 µg/mL (≈ 0.316 µM).
Take `COc1cc(C(=O)c2nn(-c3ccccc3)nc2N2CCN(C(=O)OC(C)(C)C)CC2)cc(OC)c1OC`: the IC50 is over 30 µM in series [1], over 30 µM in series [2] and 11.3 µM in series [3].
`COc1cc(C(=O)c2nn(-c3ccc([N+](=O)[O-])cc3)nc2N2CCN(C(C)=O)CC2)cc(OC)c1OC`: the half-inhibitory concentration (IC50) in series [1] amounted to 0.212 µM; in [2], 0.684 µM; in series [3], 0.417 µM.
Taken in the same sequence, the figures for `COc1cc(C(=O)c2nn(-c3cc(C)ccc3C)nc2N2CCN(C(C)=O)CC2)cc(OC)c1OC` were over 30 µM, over 30 µM and over 30 µM.
Consider `COc1cc(C(=O)c2nn(-c3ccccc3F)nc2N2CCN(C(C)=O)CC2)cc(OC)c1OC`, for which the IC50 came to 0.513 µM in [1], 4.65 µM in series [2] and 0.171 µM in [3].
On to `COc1cc(C(=O)c2nn(-c3ccc(F)cc3)nc2N2CCN(C(C)=O)CC2)cc(OC)c1OC`, for which the IC50 in series [1] was 3.48 µM; in series [2], over 30 µM; in series [3], 0.344 µM.
The corresponding values for `COc1ccc(-n2nc(C(=O)c3cc(OC)c(OC)c(OC)c3)c(N3CCN(C(C)=O)CC3)n2)cc1N` are 1.36 µM, 0.648 µM and 0.55 µM.
Take `COc1cc(C(=O)c2nn(-c3ccc(Cl)cc3)nc2N2CCN(C(C)=O)CC2)cc(OC)c1OC`: the values for the concentration for half-maximal inhibition (IC50) in series [1], in [2] and in [3] were 1.08 µM, 0.628 µM and 0.406 µM, respectively.
Taken in the same sequence, the figures for `COc1ccc(-n2nc(C(=O)c3cc(OC)c(OC)c(OC)c3)c(N3CCN(C(C)=O)CC3)n2)cc1` were 0.208 µM, 1.1 µM and 1.15 µM.
`COc1cc(C(=O)c2nn(-c3ccccc3C)nc2N2CCN(C(C)=O)CC2)cc(OC)c1OC`: the IC50 in [1] is 2.69 µM; in [2], 8.35 µM; in series [3], 2.38 µM.
The corresponding values for `COc1cc(C(=O)c2nn(-c3ccccc3)nc2N2CCOCC2)cc(OC)c1OC` are 0.891 µM, 0.488 µM and 5.86 µM.
With `COc1cc(C(=O)c2nn(-c3ccc(Br)cc3)nc2N2CCN(C(C)=O)CC2)cc(OC)c1OC`, the 50% inhibitory concentration (IC50) is over 30 µM in series [1], 9.06 µM in series [2] and 0.861 µM in series [3].
Turning to `COc1cc(C(=O)c2nn(-c3cccc(F)c3)nc2N2CCN(C(C)=O)CC2)cc(OC)c1OC`, the IC50 in [1] is 6.2 µM; in [2], over 30 µM; in series [3], 1.69 µM.
